For 31 compounds, IC50 results are on record in US7803822B2, “Triazole derivative and use thereof” (Takeda Pharmaceutical Company Limited, priority 2005, dated 2010).

For the assay, the target named is T1, human PAR-1 (Homo sapiens, UniProt P25116).
T1 construct: expressed in transfected cells; host or cells: CHO-K1 (transformant flag/trn/CHO-K1)
T1 sequence (P25116 22-425): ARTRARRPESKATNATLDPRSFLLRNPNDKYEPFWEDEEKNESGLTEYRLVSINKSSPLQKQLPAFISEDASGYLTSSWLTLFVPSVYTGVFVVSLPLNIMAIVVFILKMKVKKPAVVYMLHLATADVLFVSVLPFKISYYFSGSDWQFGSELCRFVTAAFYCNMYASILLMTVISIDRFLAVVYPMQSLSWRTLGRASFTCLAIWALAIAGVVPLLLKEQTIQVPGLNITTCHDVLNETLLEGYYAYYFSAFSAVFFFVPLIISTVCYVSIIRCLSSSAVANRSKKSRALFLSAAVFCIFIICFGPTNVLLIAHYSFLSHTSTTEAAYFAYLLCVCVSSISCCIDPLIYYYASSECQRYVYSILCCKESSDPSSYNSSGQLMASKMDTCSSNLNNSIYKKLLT
In words: Evaluation of PAR-1 antagonistic action by intracellular calcium concentration variation assay (FLIPR). Particulars: human PAR-1-expressing CHO cells, agonist peptide SFLLRN-NH2 final concentration 0.3 nM, Fluo-3AM. The assay is classed as cell-based. On the procedure: Evaluation of PAR-1 Antagonistic Action of Compound by Intracellular Calcium Concentration Variation Assay
Human PAR-1-expressing cells was plated at 3×10^4 cells/well on a 96 well clear bottom plate (Corning 3904 type) and cultured for 16-24 hr. The medium was removed from the wells of the plate, measurement buffer (50 μL, 115 mM NaCl, 5.4 mM KCl, 1.8 mM CaCl2, 0.8 mM MgCl2, 13.8 mM D-glucose, 0.1% BSA, 20 mM HEPES, pH 7.4) containing 2.5 μg/mL of Fluo-3AM (manufactured by Dojindo Laboratories), 0.08% Pluronic F-127 and 2.5 mM Probenecid was added to the cells and the mixture was reacted at 37° C. for 1 hr. The cells were washed twice with the measurement buffer. After addition of the measurement buffer (100 μL), a measurement buffer (50 μL) containing a test compound was added, and the mixture was stood still for 10 min. The plate was moved to a fluorometry image-plate reader (FLIPR-1, manufactured by Molecular Devices). […] The intracellular calcium concentration was measured by FLIPR.
On the technique in general: A change in cytosolic calcium serves as a functional read-out for many receptors and channels.

Consider `CCCc1c(C(=O)NC2CC2)nnn1-c1ccc(C(=O)NCC)cc1Cl` [Example 72, 1-{2-chloro-4-[(ethylamino)carbonyl]phenyl}-N-cyclopropyl-5-propyl-1H-1,2,3-triazole-4-carboxamide], for which the IC50 – broadly, the concentration that inhibits the measured activity by half – stood at 3.4 µM.
`CCCc1c(C(=O)NCC2CCCO2)nnn1-c1ccc(C(=O)NCC)cc1` (stereo not shown) [Example 82, 1-{4-[(ethylamino)carbonyl]phenyl}-5-propyl-N-(tetrahydrofuran-2-ylmethyl)-1H-1,2,3-triazole-4-carboxamide]: the concentration for half-maximal inhibition (IC50) was 1.9 µM.
The result for `CCCc1c(C(=O)NC2CC2)nnn1-c1ccc(NC(=O)NCC)cc1` [Example 27, N-cyclopropyl-1-(4-{[(ethylamino)carbonyl]amino}phenyl)-5-propyl-1H-1,2,3-triazole-4-carboxamide] reads 0.37 µM; that for `CCCc1c(C(=O)NC2CC2)nnn1-c1ccc(NC(=O)C(C)C)cc1` [Example 3, N-cyclopropyl-1-[4-(isobutyrylamino)phenyl]-5-propyl-1H-1,2,3-triazole-4-carboxamide], 0.52 µM; that for `CCCc1c(C(=O)NCc2cnc(C)cn2)nnn1-c1ccc(C(=O)NCC)cc1` [Example 83, 1-{4-[(ethylamino)carbonyl]phenyl}-N-[(5-methylpyrazin-2-yl)methyl]-5-propyl-1H-1,2,3-triazole-4-carboxamide], 3.6 µM.
The result for `CCNC(=O)c1ccc(-n2nnc(C(=O)NC3CC3)c2Cc2ccccc2)cc1` [Example 99, 5-benzyl-N-cyclopropyl-1-{4-[(ethylamino)carbonyl]phenyl}-1H-1,2,3-triazole-4-carboxamide] reads 1.3 µM; that for `CCCc1c(C(=O)NC2CC2)nnn1-c1ccc(NC(=O)NC)cc1` [Example 31, N-cyclopropyl-1-(4-{[(methylamino)carbonyl]amino}phenyl)-5-propyl-1H-1,2,3-triazole-4-carboxamide], 3.7 µM; that for `CCNC(=O)c1ccc(-n2nnc(C(=O)NC3CC3)c2COc2cccc(Cl)n2)cc1` [Example 118, 5-{[(6-chloropyridin-2-yl)oxy]methyl}-N-cyclopropyl-1-{4-[(ethylamino)carbonyl]phenyl}-1H-1,2,3-triazole-4-carboxamide], 1.4 µM.
The result for `CCCc1c(C(=O)NC2CC2)nnn1-c1ccc(C(=O)NC(C)C)cc1` [Example 49, N-cyclopropyl-1-{4-[(isopropylamino)carbonyl]phenyl}-5-propyl-1H-1,2,3-triazole-4-carboxamide] reads 3.5 µM; that for `CCCc1c(C(=O)NC2CC2)nnn1-c1ccc(C(=O)NC2CC2)cc1` [Example 53, N-cyclopropyl-1-{4-[(cyclopropylamino)carbonyl]phenyl}-5-propyl-1H-1,2,3-triazole-4-carboxamide], 3.4 µM; that for `CCCc1c(C(=O)NCc2ccc3c(c2)OCO3)nnn1-c1ccc(C(=O)NCC)cc1` [Example 86, N-(1,3-benzodioxol-5-ylmethyl)-1-{4-[(ethylamino)carbonyl]phenyl}-5-propyl-1H-1,2,3-triazole-4-carboxamide], 0.62 µM.
Take `CCNC(=O)c1ccc(-n2nnc(C(=O)NC3CC3)c2CCCc2ccccc2)cc1` [Example 100, N-cyclopropyl-1-{4-[(ethylamino)carbonyl]phenyl}-5-(3-phenylpropyl)-1H-1,2,3-triazole-4-carboxamide]: the half-inhibitory concentration (IC50) turned out to be 0.7 µM.
The result for `CCNC(=O)c1ccc(-n2nnc(C(=O)NC3CC3)c2CCCF)cc1` [Example 109, N-cyclopropyl-1-{4-[(ethylamino)carbonyl]phenyl}-5-(3-fluoropropyl)-1H-1,2,3-triazole-4-carboxamide] reads 3.4 µM.
The result for `CCCc1c(C(=O)NC2CC2)nnn1-c1ccc(NC(=O)C2CC2)cc1` [Example 4, N-cyclopropyl-1-{4-[(cyclopropylcarbonyl)amino]phenyl}-5-propyl-1H-1,2,3-triazole-4-carboxamide] reads 0.55 µM; that for `CCNC(=O)c1ccc(-n2nnc(C(=O)NC3CC3)c2COc2ccc(OC)cc2)cc1` [Example 122, N-cyclopropyl-1-{4-[(ethylamino)carbonyl]phenyl}-5-[(4-methoxyphenoxy)methyl]-1H-1,2,3-triazole-4-carboxamide], 3.3 µM.
The result for `C/C=C/c1c(C(=O)NC2CC2)nnn1-c1ccc(C(=O)NCC(F)(F)F)cc1` [Example 399, N-cyclopropyl-5-[(1E)-prop-1-en-1-yl]-1-(4-{[(2,2,2-trifluoroethyl)amino]carbonyl}phenyl)-1H-1,2,3-triazole-4-carboxamide] reads 1.4 µM; that for `CCNC(=O)c1ccc(-n2nnc(C(=O)NC3CC3)c2CSc2ccccc2)cc1` [Example 130, N-cyclopropyl-1-{4-[(ethylamino)carbonyl]phenyl}-5-[(phenylthio)methyl]-1H-1,2,3-triazole-4-carboxamide], 0.48 µM.
Regarding `CCCc1c(C(=O)N2CCc3c([nH]c4ccccc34)C2)nnn1-c1ccc(C(=O)NCC)cc1` [Example 85, N-ethyl-4-[5-propyl-4-(1,3,4,9-tetrahydro-2H-β-carbolin-2-ylcarbonyl)-1H-1,2,3-triazol-1-yl]benzamide], the IC50 turned out to be 1.9 µM.
The result for `CCCc1c(C(=O)NC2CC2)nnn1-c1ccc(C(=O)NC2CCCC2)cc1` [Example 54, 1-{4-[(cyclopentylamino)carbonyl]phenyl}-N-cyclopropyl-5-propyl-1H-1,2,3-triazole-4-carboxamide] reads 1.6 µM; that for `CCNC(=O)c1ccc(-n2nnc(C(=O)NC3CC3)c2CC2CCCCC2)cc1` [Example 102, 5-(cyclohexylmethyl)-N-cyclopropyl-1-{4-[(ethylamino)carbonyl]phenyl}-1H-1,2,3-triazole-4-carboxamide], 1.8 µM; that for `CCCc1c(C(=O)NC2CC2)nnn1-c1ccc(C(=O)NCC)cc1` [Example 43, N-cyclopropyl-1-{4-[(ethylamino)carbonyl]phenyl}-5-propyl-1H-1,2,3-triazole-4-carboxamide], 1.5 µM.
The result for `CCCc1c(C(=O)NCCc2c[nH]c3ccc(OC)cc23)nnn1-c1ccc(C(=O)NCC)cc1` [Example 87, 1-{4-[(ethylamino)carbonyl]phenyl}-N-[2-(5-methoxy-1H-indol-3-yl)ethyl]-5-propyl-1H-1,2,3-triazole-4-carboxamide] reads 0.28 µM.
The result for `CCNC(=O)c1ccc(-n2nnc(C(=O)NC3CC3)c2CC(C)C)cc1` [Example 93, N-cyclopropyl-1-{4-[(ethylamino)carbonyl]phenyl}-5-isobutyl-1H-1,2,3-triazole-4-carboxamide] reads 1.2 µM; that for `CCCc1c(C(=O)NC2CC2)nnn1-c1ccc(NC(=O)COC)cc1` [Example 19, N-cyclopropyl-1-{4-[(methoxyacetyl)amino]phenyl}-5-propyl-1H-1,2,3-triazole-4-carboxamide], 0.75 µM; that for `CCCc1c(C(=O)NC2CC2)nnn1-c1ccc(C(=O)NCC(F)(F)F)cc1` [Example 46, N-cyclopropyl-5-propyl-1-(4-{[(2,2,2-trifluoroethyl)amino]carbonyl}phenyl)-1H-1,2,3-triazole-4-carboxamide], 0.95 µM.
For the compound `CCNC(=O)c1ccc(-n2nnc(C(=O)NC3CC3)c2CCc2ccccc2)cc1` [Example 98, N-cyclopropyl-1-{4-[(ethylamino)carbonyl]phenyl}-5-(2-phenylethyl)-1H-1,2,3-triazole-4-carboxamide], the IC50 came to 0.5 µM.
For `CCCc1c(C(=O)NC2CC2)nnn1-c1ccc(C(=O)NCC(C)C)cc1` [Example 52, N-cyclopropyl-1-{4-[(isobutylamino)carbonyl]phenyl}-5-propyl-1H-1,2,3-triazole-4-carboxamide], the half-maximal inhibitory concentration (IC50) amounted to 1.4 µM.
In the case of `CCCc1c(C(=O)NC2CC2)nnn1-c1ccc(NC(=O)C(F)(F)F)cc1` [Example 16, N-cyclopropyl-5-propyl-1-{4-[(trifluoroacetyl)amino]phenyl}-1H-1,2,3-triazole-4-carboxamide], the half-inhibitory concentration (IC50) was determined as 0.25 µM.
The result for `C=CCCc1c(C(=O)NC2CC2)nnn1-c1ccc(NC(=O)NCC)cc1` [Example 41, 5-(3-buten-1-yl)-N-cyclopropyl-1-(4-{[(ethylamino)carbonyl]amino}phenyl)-1H-1,2,3-triazole-4-carboxamide] reads 0.63 µM.
For `CCNC(=O)c1ccc(-n2nnc(C(=O)NC3CC3)c2-c2ccccc2)cc1` [Example 105, N-cyclopropyl-1-{4-[(ethylamino)carbonyl]phenyl}-5-phenyl-1H-1,2,3-triazole-4-carboxamide], the IC50 came out at 2.7 µM.
The result for `CCNC(=O)c1ccc(-n2nnc(C(=O)NC3CC3)c2CCC(C)C)cc1` [Example 97, N-cyclopropyl-1-{4-[(ethylamino)carbonyl]phenyl}-5-(3-methylbutyl)-1H-1,2,3-triazole-4-carboxamide] reads 1.6 µM.
